Our source for the IC50 values is patent publication US12281079B2, “Quinoline derivatives, processes for their preparation and uses thereof for the treatment of cancer” (Lead Discovery Center GmbH, priority 2019, dated 2025).

Assay [1] addresses mitochondrial RNA polymerase (POLRMT) (Mus musculus, UniProt Q8BKF1). Briefly: Homogeneous TR-FRET assay for mitochondrial transcription activity. It counts as biochemical. Conditions: homogeneous TR-FRET assay according to Example 4. A digest of the protocol:
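Read-out is TR-FRET (ex 340, em 665 nm) from two adjacent labelled DNA probes annealing to the 407 bp transcript after EDTA/700 mM NaCl stop. Reaction: murine POLRMT, TFAM, TFB2M and LSP plasmid template, compound 10 μM or serial dilution, 10 min rt preincubation, 500 μM each nucleotide, 2 h rt.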

In assay [2] the test system is mitochondrial transcription (7S RNA) in HeLa cells. Briefly: Quantitative real time-PCR assay of inhibition of mitochondrial transcription (7S RNA) in HeLa cells. In kind it is cell-based. To be noted: Homo sapiens, 4 h compound incubation, according to Example 5, read-out: cellular qPCR assay. A digest of the protocol: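 HeLa cells were exposed to compound dilution series or DMSO for 4 h, then RNA was extracted, normalized and reverse-transcribed. TaqMan qRT-PCR measured short-lived 7S RNA, with POLRMT as nuclear-transcription readout and TBP as housekeeping gene. Biological triplicates were analyzed by ΔΔCt and reported as Rq % (2−ΔΔCt).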

Molecules are shown by their SMILES.

Chain of mitochondrial RNA polymerase (POLRMT) (Q8BKF1 42-1207): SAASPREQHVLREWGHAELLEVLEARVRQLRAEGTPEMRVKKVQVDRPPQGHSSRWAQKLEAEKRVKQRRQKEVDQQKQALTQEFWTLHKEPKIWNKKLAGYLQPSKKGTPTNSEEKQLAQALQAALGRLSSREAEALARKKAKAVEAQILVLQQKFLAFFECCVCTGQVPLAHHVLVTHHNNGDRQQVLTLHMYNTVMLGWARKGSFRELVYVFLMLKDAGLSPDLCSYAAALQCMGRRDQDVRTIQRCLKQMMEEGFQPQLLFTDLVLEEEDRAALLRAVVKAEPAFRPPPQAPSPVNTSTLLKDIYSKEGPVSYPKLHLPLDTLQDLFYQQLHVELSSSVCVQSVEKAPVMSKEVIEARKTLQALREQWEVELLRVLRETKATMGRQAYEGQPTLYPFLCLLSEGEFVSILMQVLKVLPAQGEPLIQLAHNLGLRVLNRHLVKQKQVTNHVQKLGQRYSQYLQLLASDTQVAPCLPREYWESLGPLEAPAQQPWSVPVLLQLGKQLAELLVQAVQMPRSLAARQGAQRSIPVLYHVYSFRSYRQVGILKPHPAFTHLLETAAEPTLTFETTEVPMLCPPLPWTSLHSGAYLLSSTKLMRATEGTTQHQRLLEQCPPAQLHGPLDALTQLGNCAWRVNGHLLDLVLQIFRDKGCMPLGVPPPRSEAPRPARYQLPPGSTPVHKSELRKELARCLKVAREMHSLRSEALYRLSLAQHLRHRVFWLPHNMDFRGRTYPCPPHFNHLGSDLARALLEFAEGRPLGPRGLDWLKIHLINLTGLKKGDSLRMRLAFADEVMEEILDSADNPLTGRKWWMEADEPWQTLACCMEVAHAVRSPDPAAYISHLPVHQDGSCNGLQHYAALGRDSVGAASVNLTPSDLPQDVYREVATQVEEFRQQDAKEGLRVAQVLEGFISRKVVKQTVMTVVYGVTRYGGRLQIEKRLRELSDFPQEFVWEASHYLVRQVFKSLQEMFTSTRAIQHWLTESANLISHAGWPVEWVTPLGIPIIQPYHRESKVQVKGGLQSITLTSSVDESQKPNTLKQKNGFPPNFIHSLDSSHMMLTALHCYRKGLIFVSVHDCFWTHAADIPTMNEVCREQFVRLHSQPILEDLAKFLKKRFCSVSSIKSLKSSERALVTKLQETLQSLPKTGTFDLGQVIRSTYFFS

As to `C[C@@H](Oc1ccc2c(-c3ccc(F)cc3Cl)ccnc2c1)C(=O)N1CCC[C@H](CC(=O)O)C1` [Compound 18, 2-((R)-1-((R)-2-((4-(2-chloro-4-fluorophenyl)quinolin-7-yl)oxy)propanoyl)piperidin-3-yl)acetic acid], the IC50 in assay [1] was in the range of 20 to 100 nM; in assay [2], 50 to 500 nM.

Turning to `Cc1cc(F)cc(C)c1-c1ccnc2nc(O[C@H](C)C(=O)N3CCC[C@H](CC(=O)O)C3)ccc12` [Compound 221, 2-[(3R)-1-[(2R)-2-[[5-(4-fluoro-2,6-dimethyl-phenyl)-1,8-naphthyridin-2-yl]oxy]propanoyl]-3-piperidyl]acetic acid], the IC50 in assay [1] was less than 20 nM; in assay [2] it was less than 10 nM.

For the compound `C[C@@H](Oc1ccc2c(-c3ccc(F)cc3Cl)ccnc2c1)C(=O)N1CCC(C(=O)O)CC1` [Compound 24, 1-[(2R)-2-[[4-(2-chloro-4-fluoro-phenyl)-7-quinolyl]oxy]propanoyl]piperidine-4-carboxylic acid], the IC50 is 20 to 100 nM in assay [1] and 50 to 500 nM in assay [2].

On to `Cc1cc(-c2ccc(F)cc2Cl)c2ccc(O[C@H](C)C(=O)N3CCC[C@@H](S(N)(=O)=O)C3)cc2n1` [Compound 115, (3R)-1-[(2R)-2-[[4-(2-chloro-4-fluoro-phenyl)-2-methyl-7-quinolyl]oxy]propanoyl]piperidine-3-sulfonamide], for which the IC50 in assay [1] lay in the range of 1000 to 10000 nM; in assay [2] it was 50 to 500 nM.

In the case of `C[C@@H](Oc1ccc2c(-c3ccc(F)cc3Cl)ccnc2c1)C(=O)N1CCCC(C2(C(=O)O)CC2)C1` (mixture of isomers) [Compound 194, 1-[1-[rac-(2R)-2-[[4-(2-chloro-4-fluoro-phenyl)-7-quinolyl]oxy]propanoyl]-3-piperidyl]cyclopropanecarboxylic acid], the IC50 in assay [1] lay within 20 to 100 nM; in assay [2], 10 to 50 nM.

In the case of `CCOC(=O)[C@H]1CCCN(C(=O)[C@@H](C)Oc2ccc3c(-c4ccccc4C)ccnc3c2)C1` [Compound 14, ethyl (3S)-1-[(2R)-2-[[4-(o-tolyl)-7-quinolyl]oxy]propanoyl]piperidine-3-carboxylate], the IC50 in assay [1] was 20 to 100 nM; in assay [2], 50 to 500 nM.

Consider `C[C@@H](Oc1ccc2c(-c3c(Cl)cc(F)cc3Cl)ccnc2c1)C(=O)N1CCCC(C(C)(C)C(=O)O)C1` (stereo partly drawn) [Compound 195, 2-methyl-2-[1-[rac-(2R)-2-[[4-(2,6-dichloro-4-fluoro-phenyl)-7-quinolyl]oxy]propanoyl]-3-piperidyl]propanoic acid], for which the IC50 fell in the range of 20 to 100 nM in assay [1] and 10 to 50 nM in assay [2].

As for `Cc1cc(F)cc(C)c1-c1ccnc2cc(O[C@H](C)C(=O)N3CCC[C@@](C)(C(=O)O)C3)ccc12` [Compound 175, (3R)-1-[(2R)-2-[[4-(4-fluoro-2,6-dimethyl-phenyl)-7-quinolyl]oxy]propanoyl]-3-methyl-piperidine-3-carboxylic acid], the IC50 in assay [1] was less than 20 nM; in assay [2], less than 10 nM.

Regarding `C[C@@H](Oc1ccc2c(-c3ccccc3Cl)ccnc2c1)C(=O)N1CCC(CCC(=O)O)CC1` [Compound 118, 3-[1-[(2R)-2-[[4-(2-chlorophenyl)-7-quinolyl]oxy]propanoyl]-4-piperidyl]propanoic acid], the IC50 in assay [1] was less than 20 nM; in assay [2] it was 10 to 50 nM.

Consider `CC1CCCCN1C(=O)[C@@H](C)Oc1ccc2c(-c3ccc(F)cc3Cl)ccnc2c1` (mixture of isomers) [Compound 200, rac-(2R)-2-[[4-(2-chloro-4-fluoro-phenyl)-7-quinolyl]oxy]-1-(2-methyl-1-piperidyl)propan-1-one], for which the IC50 in assay [1] is 20 to 100 nM; in assay [2] it was less than 10 nM.

For the compound `CCC(=O)N1CCN(C(=O)[C@@H](C)Oc2ccc3c(-c4ccc(F)cc4Cl)ccnc3c2)CC1` [Compound 28, (R)-2-((4-(2-chloro-4-fluorophenyl)quinolin-7-yl)oxy)-1-(4-propionylpiperazin-1-yl)propan-1-one], the IC50 in assay [1] lay within 100 to 1000 nM; in assay [2] it was 10 to 50 nM.

As for `C[C@@H](Oc1ccc2c(-c3ccccc3Cl)cc(Cl)nc2c1)C(=O)N1CCC[C@H](CC(=O)O)C1` [Compound 83, 2-[(3R)-1-[(2R)-2-[[2-chloro-4-(2-chlorophenyl)-7-quinolyl]oxy]propanoyl]-3-piperidyl]acetic acid], the IC50 is 1000 to 10000 nM in assay [1] and 500 to 5000 nM in assay [2].

For `Cc1ccccc1-c1cc(Cl)nc2cc(O[C@H](C)C(=O)OC(C)(C)C)ccc12` [Compound 73, tert-butyl (2R)-2-[[2-chloro-4-(o-tolyl)-7-quinolyl]oxy]propanoate], the figures for the IC50 in assay [1] and in assay [2] were 100 to 1000 nM and 50 to 500 nM, respectively.

Regarding `Cc1ccccc1-c1ccnc2cc(O[C@H](C)C(=O)N3CCC[C@H](CC(=O)O)C3)ccc12` [Compound 13, 2-[(3R)-1-[(2R)-2-[[4-(o-tolyl)-7-quinolyl]oxy]propanoyl]-3-piperidyl]acetic acid], the results for the IC50 in assay [1] and in assay [2] were 20 to 100 nM and 10 to 50 nM, respectively.

Consider `Cc1ccccc1-c1cc(Cl)nc2cc(O[C@H](C)C(=O)N3CCC[C@H](C(=O)O)C3)ccc12` [Compound 25, (3S)-1-[(2R)-2-[[2-chloro-4-(o-tolyl)-7-quinolyl]oxy]propanoyl]piperidine-3-carboxylic acid], for which the IC50 lay in the range of 20 to 100 nM in assay [1] and 10 to 50 nM in assay [2].

Turning to `Cc1cc(-c2ccccc2C)c2ccc(O[C@H](C)C(=O)N3CCC[C@H](C(=O)O)C3)cc2n1` [Compound 31, (3S)-1-[(2R)-2-[[2-methyl-4-(o-tolyl)-7-quinolyl]oxy]propanoyl]piperidine-3-carboxylic acid], the IC50 was 100 to 1000 nM in assay [1] and less than 10 nM in assay [2].

Consider `C[C@@H](Oc1ccc2c(-c3ccc(F)cc3Cl)ccnc2c1)C(=O)Nc1ccc(C(=O)O)cc1` [Compound 60, 4-[[(2R)-2-[[4-(2-chloro-4-fluoro-phenyl)-7-quinolyl]oxy]propanoyl]amino]benzoic acid], for which the figures for the IC50 in assay [1] and in assay [2] were 100 to 1000 nM and 50 to 500 nM, respectively.

With `C[C@@H](Oc1ccc2c(-c3ccc(F)cc3Cl)ccnc2c1)C(=O)N1CC[C@H](CC(=O)O)C1` [Compound 40, 2-[(3R)-1-[(2R)-2-[[4-(2-chloro-4-fluoro-phenyl)-7-quinolyl]oxy]propanoyl]pyrrolidin-3-yl]acetic acid], the figures for the IC50 in assay [1] and in assay [2] were 100 to 1000 nM and 50 to 500 nM, respectively.

As to `Cc1cc(F)cc(C)c1-c1ccnc2cc(O[C@H](C)C(=O)N3CCC[C@](C)(C(=O)O)C3)ccc12` [Compound 184, (3S)-1-[(2R)-2-[[4-(4-fluoro-2,6-dimethyl-phenyl)-7-quinolyl]oxy]propanoyl]-3-methyl-piperidine-3-carboxylic acid], the values for the IC50 in assay [1] and in assay [2] were less than 20 nM and less than 10 nM, respectively.

As to `CC1CN(C(=O)[C@@H](C)Oc2ccc3c(-c4ccc(F)cc4Cl)ccnc3c2)CC(C)N1` (stereo partly drawn) [Compound 216, (2R)-2-[[4-(2-chloro-4-fluoro-phenyl)-7-quinolyl]oxy]-1-(3,5-dimethylpiperazin-1-yl)propan-1-one], the IC50 lay in the range of 100 to 1000 nM in assay [1] and 50 to 500 nM in assay [2].

As for `C[C@@H](Oc1ccc2c(-c3ccc(F)cc3Cl)ccnc2c1)C(=O)Nc1ccccn1` [Compound 130, (2R)-2-[[4-(2-chloro-4-fluoro-phenyl)-7-quinolyl]oxy]-N-(2-pyridyl)propanamide], the IC50 in assay [1] was 100 to 1000 nM; in assay [2], 500 to 5000 nM.

Take `C[C@@H](Oc1ccc2c(-c3c(Cl)cccc3Cl)ccnc2c1)C(=O)N1CCC[C@H](CC(=O)O)C1` [Compound 120, 2-[(3R)-1-[(2R)-2-[[4-(2,6-dichlorophenyl)-7-quinolyl]oxy]propanoyl]-3-piperidyl]acetic acid]: the IC50 in assay [1] is less than 20 nM; in assay [2], 10 to 50 nM.

With `C[C@@H](Oc1ccc2c(-c3ccc(F)cc3Cl)ccnc2c1)C(=O)N1CC[C@@H](CC(=O)O)C1` [Compound 39, 2-[(3S)-1-[(2R)-2-[[4-(2-chloro-4-fluoro-phenyl)-7-quinolyl]oxy]propanoyl]pyrrolidin-3-yl]acetic acid], the IC50 was in the range of 100 to 1000 nM in assay [1] and 50 to 500 nM in assay [2].

Turning to `C[C@@H](Oc1ccc2c(-c3ccccc3Cl)cc(Cl)nc2c1)C(=O)N1CCC[C@H](C(=O)O)C1` [Compound 34, (3S)-1-[(2R)-2-[[2-chloro-4-(2-chlorophenyl)-7-quinolyl]oxy]propanoyl]piperidine-3-carboxylic acid], the IC50 lay within 100 to 1000 nM in assay [1] and 10 to 50 nM in assay [2].

Consider `CNC(=O)C[C@H]1CCCN(C(=O)[C@@H](C)Oc2ccc3c(-c4ccccc4Cl)cc(Cl)nc3c2)C1` [Compound 68, 2-[(3R)-1-[(2R)-2-[[2-chloro-4-(2-chlorophenyl)-7-quinolyl]oxy]propanoyl]-3-piperidyl]-N-methyl-acetamide], for which the values for the IC50 in assay [1] and in assay [2] were 100 to 1000 nM and 50 to 500 nM, respectively.

In the case of `Cc1ccccc1-c1ccnc2cc(O[C@H](C)C(=O)N3CCC[C@H](C(=O)O)C3)ccc12` [Compound 1, (3S)-1-[(2R)-2-[[4-(o-tolyl)-7-quinolyl]oxy]propanoyl]piperidine-3-carboxylic acid], the IC50 was less than 20 nM in assay [1] and less than 10 nM in assay [2].

For `C[C@@H](Oc1ccc2c(-c3ccc(F)cc3Cl)ccnc2c1)C(=O)N1CCC2(CC1)COC2` [Compound 210, (2R)-2-[[4-(2-chloro-4-fluoro-phenyl)-7-quinolyl]oxy]-1-(2-oxa-7-azaspiro[3.5]nonan-7-yl)propan-1-one], the IC50 in assay [1] lay in the range of 100 to 1000 nM; in assay [2], 10 to 50 nM.

Turning to `CCOC(=O)[C@H]1CCCN(C(=O)[C@@H](C)Oc2ccc3c(-c4ccc(F)cc4Cl)ccnc3c2)C1` [Compound 27, ethyl (3S)-1-[(2R)-2-[[4-(2-chloro-4-fluoro-phenyl)-7-quinolyl]oxy]propanoyl]piperidine-3-carboxylate], the results for the IC50 in assay [1] and in assay [2] were 20 to 100 nM and 500 to 5000 nM, respectively.
